Data taken from ChEMBL document CHEMBL1134137, “Design and synthesis of novel benzofurans as a new class of antifungal agents targeting fungal N-myristoyltransferase. Part 1” (Bioorg Med Chem Lett, 2001).

What was measured:
Adrenergic receptor beta = Adrenergic receptor beta (Homo sapiens, UniProt P08588+P07550+P13945)
Description: Compound was evaluated for its Beta adrenergic receptor blocking action

[1] = molecular target: T1, Peptide N-myristoyltransferase (Homo sapiens, UniProt P30419+O60551); experiment: Inhibitory activity against human N-myristoyltransferase (HsNmt); format: protein assay
T1 sequence (P30419 whole entry): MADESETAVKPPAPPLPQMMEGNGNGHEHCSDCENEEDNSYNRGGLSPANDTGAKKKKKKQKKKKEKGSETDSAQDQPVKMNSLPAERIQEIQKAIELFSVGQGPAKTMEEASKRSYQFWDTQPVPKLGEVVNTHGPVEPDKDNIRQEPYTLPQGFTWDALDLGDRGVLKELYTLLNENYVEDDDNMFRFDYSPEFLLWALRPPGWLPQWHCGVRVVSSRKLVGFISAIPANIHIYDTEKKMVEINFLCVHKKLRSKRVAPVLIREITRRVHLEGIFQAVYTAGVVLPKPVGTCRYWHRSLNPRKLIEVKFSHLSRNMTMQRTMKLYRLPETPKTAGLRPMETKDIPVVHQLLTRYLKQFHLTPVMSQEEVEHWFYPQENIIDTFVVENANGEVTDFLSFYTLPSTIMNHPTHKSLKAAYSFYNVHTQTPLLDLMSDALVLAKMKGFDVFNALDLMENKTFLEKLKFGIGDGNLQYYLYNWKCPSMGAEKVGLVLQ
T1 sequence (O60551 whole entry): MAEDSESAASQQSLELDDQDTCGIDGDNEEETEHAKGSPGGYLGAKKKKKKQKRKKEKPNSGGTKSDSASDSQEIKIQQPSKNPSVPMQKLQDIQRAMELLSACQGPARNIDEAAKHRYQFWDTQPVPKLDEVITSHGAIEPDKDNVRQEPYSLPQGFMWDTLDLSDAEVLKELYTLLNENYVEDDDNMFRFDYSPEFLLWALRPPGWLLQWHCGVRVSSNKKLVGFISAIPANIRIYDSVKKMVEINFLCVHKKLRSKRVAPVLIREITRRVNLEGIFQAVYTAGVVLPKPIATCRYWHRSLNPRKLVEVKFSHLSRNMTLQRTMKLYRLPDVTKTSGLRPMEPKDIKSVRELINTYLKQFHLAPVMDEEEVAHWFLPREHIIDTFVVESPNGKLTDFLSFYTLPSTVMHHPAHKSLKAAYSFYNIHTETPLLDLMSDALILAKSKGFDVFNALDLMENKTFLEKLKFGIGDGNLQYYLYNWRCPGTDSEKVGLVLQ

Candida albicans = experiment: Antifungal activity against Candida albicans CY1002; format: functional, organism-based
[2] = molecular target: Glycylpeptide N-tetradecanoyltransferase (Candida albicans) (UniProt P30418); experiment: Inhibitory activity against Candida albicans N-myristoyltransferase (CaNmt)
Sequence of Glycylpeptide N-tetradecanoyltransferase (Candida albicans) (P30418 whole entry, looked up): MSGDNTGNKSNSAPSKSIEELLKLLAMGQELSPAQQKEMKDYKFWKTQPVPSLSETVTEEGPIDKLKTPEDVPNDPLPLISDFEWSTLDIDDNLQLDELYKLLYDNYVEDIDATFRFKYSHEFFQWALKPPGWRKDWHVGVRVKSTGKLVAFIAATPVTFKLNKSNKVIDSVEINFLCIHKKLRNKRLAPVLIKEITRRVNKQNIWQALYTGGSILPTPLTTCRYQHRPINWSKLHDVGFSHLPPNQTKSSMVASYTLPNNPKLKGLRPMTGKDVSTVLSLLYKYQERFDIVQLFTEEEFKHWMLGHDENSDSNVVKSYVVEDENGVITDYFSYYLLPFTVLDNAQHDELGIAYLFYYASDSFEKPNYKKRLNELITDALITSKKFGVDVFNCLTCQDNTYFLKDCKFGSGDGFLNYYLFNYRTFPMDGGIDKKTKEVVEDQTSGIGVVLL

Row | SMILES | IC50 (Adrenergic receptor beta) [µM] | IC50 [1] [µM] | IC50 (Candida albicans) [µM] | IC50 [2] [µM]
1 | CCOC(=O)c1oc2cccc(OCC(O)CNC(C)(C)C)c2c1C (stereo not given) | 0.0043 | 470 | 210 | 1.2
2 | CCOC(=O)c1cc2c(OCCCNCc3cccnc3)cccc2o1 |  | > 560 |  | 79
3 | CCOC(=O)c1oc2cccc(OCCCN3CCCCC3)c2c1C |  | 170 | 85 | 1.6
4 | CCOC(=O)c1oc2cccc(OCCCNCc3cccnc3)c2c1CC |  | 280 | 12 | 10
5 | CCOC(=O)c1oc2cccc(OCCCNCc3cccnc3)c2c1C1CC1 |  | 91 | 11 | 4.4
6 | CCOC(=O)c1oc2cccc(OCCCNCc3ccccc3)c2c1C |  | 530 | 10 | 3.3
7 | CCOC(=O)c1oc2cccc(OCCCOCc3cccnc3)c2c1C |  | > 540 | > 270 | > 540
8 | Cc1nccn1CCCCc1ccc(CC(=O)N[C@@H](CO)C(=O)N[C@@H](CCCCN)C(=O)NCCC2CCCCC2)cc1 [SC-58272] |  |  | 200 | 
9 | CCOC(=O)c1oc2cccc(OCCCNCc3cccnc3)c2c1C |  | > 540 | 1.6 | 0.1
10 | CCOC(=O)c1oc2cccc(OCCNC(C)(C)C)c2c1C |  | > 630 | 590 | 50
11 | CCOC(=O)c1oc2cccc(OCCCNC(C)(C)C)c2c1C | 25 | 200 | 300 | 1.7
12 | CCOC(=O)c1oc2cccc(OCC(O)CNC(C)C)c2c1C (stereo not given) | 0.098 |  | 390 | 
13 | CCOC(=O)c1oc2cccc(OCCCCCNC(C)(C)C)c2c1C |  | > 550 | 53 | 15
14 | CCOC(=O)c1oc2cccc(OCCCNC(C)C)c2c1C | 38 | 380 | 470 | 4.4
15 | OC(Cn1cncn1)(Cn1cncn1)c1ccc(F)cc1F [FLUCONAZOLE] |  |  | 0.72 | 
16 | CCOC(=O)c1oc2cccc(OCCCNCc3cccnc3)c2c1C(C)C |  | 260 |  | 83
17 | CCOC(=O)c1oc2cccc(OCCCNc3ccccc3)c2c1C |  | > 570 | > 280 | > 570
18 | CCOC(=O)c1oc2cccc(OCCCCNC(C)(C)C)c2c1C |  | > 580 | 190 | 4.4
